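Tested at 5 concentrations; 48 h exposure; 96-well plates; endpoints linearly interpolated, else capped at highest concentration. GI50 = concentration required for 50% inhibition of growth. TGI is the concentration that stops growth completely.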

Test systems include BT-549 breast; MDA-MB-231 breast; MDA-N.
What all share (assay): NCI-60 cell line screen, 48 h

Regarding `Cc1ccc(-c2nc(N3CCCNCC3)c3oc(-c4ccc(C)cc4)nc3n2)cc1`, in the test on BT-549 breast, the GI50 was 16.3 µM and the TGI is 35 µM. Besides, in the test with MDA-MB-231 breast, the GI50 is 1.69 µM and the TGI was 3.11 µM.

Regarding `Cn1cnc([N+](=O)[O-])c1Sc1ncn[nH]1`, in the test with BT-549 breast, the GI50 is more than 100 µM and the TGI is more than 100 µM. For the same compound, in the test on MDA-MB-231 breast, the GI50 is more than 100 µM and the TGI was more than 100 µM.

Take `O=S(=O)(NCCNc1nccc(-c2c(-c3ccc(F)cc3)nc3sccn23)n1)c1ccccc1`: in the test with MDA-MB-231 breast, the GI50 was 16.6 µM and the TGI is more than 100 µM.

Consider `CCN(CC)CCOc1ccc(C(=O)/C=C\c2ccc(Cl)cc2Cl)cc1`, for which, in the test on BT-549 breast, the GI50 is 5.83 µM and the TGI turned out to be 18.2 µM. Moreover, in the test on MDA-MB-231 breast, the GI50 was 4.92 µM and the TGI is 20.1 µM.

Regarding `CNC(=O)OCC1C2=C(C(=O)C(C)=C(N)C2=O)N2CC3C(N3C)C12OC` (stereo unspecified), the TGI in the test on BT-549 breast and in the test with MDA-MB-231 breast was more than 100 µM each time.

For `O=[N+]([O-])c1ccc(S(=O)(=O)Cc2ccccc2)c2nonc12`, the TGI in the test on BT-549 breast was 33.1 µM; in the test with MDA-MB-231 breast it was 50.7 µM; with MDA-N, 40.9 µM.

Consider `COc1ccc(Nc2c3ccccc3nc3[nH]c4ccccc4c23)cc1`, for which, in the test on BT-549 breast, the GI50 is 13.7 µM and the TGI is more than 50 µM. Also, in the test on MDA-MB-231 breast, the GI50 was 14.5 µM and the TGI was more than 50 µM.

With `CCCNc1nc2ccccc2c2c1S(=O)(=O)c1ccc(Cl)cc1C2=O`, in the test on BT-549 breast, the GI50 is 0.734 µM and the TGI was more than 50 µM.

As to `C=C1[C@@H]([C@@]2(C)C=CC(=O)C(C)(C)[C@@H]2CC(=O)OC)CC[C@@]2(C)C(c3ccoc3)OC(=O)[C@H]3O[C@]132` (stereo partly specified), the TGI in the test with BT-549 breast, with MDA-MB-231 breast and in the test with MDA-N was more than 100 µM throughout.

Turning to `COc1cc2c3c(n(CCCN=[N+]=[N-])c(=O)c2cc1OC)-c1ccc(N(C)C)cc1C3=O`, in the test on BT-549 breast, the GI50 is more than 100 µM and the TGI was more than 100 µM. Moreover, in the test on MDA-MB-231 breast, the GI50 was more than 100 µM and the TGI is more than 100 µM.

`CSc1cccc(NC(=O)OC2CCCCCCCCCCC2)c1`: the TGI was more than 100 µM in the test on BT-549 breast, 66.8 µM in the test on MDA-MB-231 breast and 60.8 µM in the test with MDA-N.

Take `O=C(Nc1ccc(Cl)c(Cl)c1)OCCN1c2ccccc2Sc2ccccc21`: the TGI in the test with BT-549 breast, with MDA-MB-231 breast and in the test on MDA-N was more than 10 µM throughout.

As for `COc1cc(/C=C/C(=O)c2cccnc2Nc2ccc(F)cc2)cc(OC)c1OC`, in the test with BT-549 breast, the GI50 is 2.7 µM and the TGI was 6.72 µM. For the same compound, in the test on MDA-MB-231 breast, the GI50 was 3.07 µM and the TGI was determined as 11.8 µM.

In the case of `Cc1cccc2c(N)c3ccccc3nc12`, in the test with BT-549 breast, the GI50 is 3.23 µM and the TGI was determined as 12.9 µM. In addition, in the test on MDA-MB-231 breast, the GI50 is 1.26 µM and the TGI was 5.26 µM.

For the compound `O=C1NCCS(=O)(=O)/C1=C\C=C\c1cccc(C(F)(F)F)c1`, in the test on BT-549 breast, the GI50 was 2.4 µM and the TGI came out at 8.54 µM. For the same compound, in the test with MDA-MB-231 breast, the GI50 is 4.21 µM and the TGI was 15.9 µM.

Take `COc1ccc(Nc2cc(C)nc(N3CCN(c4ccnc5cc(Cl)ccc45)CC3)n2)cc1`: in the test on BT-549 breast, the GI50 is 2.22 µM and the TGI worked out at 8.06 µM. In the test on MDA-MB-231 breast, the GI50 is 2.31 µM and the TGI was more than 100 µM.

Turning to `CCN(CC)CCSCCCNc1c2ccc(Cl)cc2nc2ccc(OC)cc12`, in the test on BT-549 breast, the GI50 was 1.77 µM and the TGI is 3.5 µM. Further, in the test on MDA-MB-231 breast, the GI50 was 1.01 µM and the TGI stood at 3 µM.

With `NCCSCCc1ccccc1`, the TGI with BT-549 breast, with MDA-MB-231 breast and with MDA-N was more than 100 µM in each case.

Consider `Cc1c(Sc2ccccc2)[n+](=O)c2cc(Cl)c(Cl)cc2n1[O-]`, for which, in the test with BT-549 breast, the GI50 was 27.8 µM and the TGI amounted to 58.9 µM. Also, in the test with MDA-MB-231 breast, the GI50 was 35.7 µM and the TGI was more than 100 µM.

Turning to `N#Cc1cc(S(=O)(=O)Nc2nc3ccccc3s2)c(SCc2ccccc2)cc1Cl`, in the test on BT-549 breast, the GI50 is 20 µM and the TGI came to 48.9 µM. Besides, in the test on MDA-MB-231 breast, the GI50 is 26.7 µM and the TGI turned out to be 82.6 µM.

As for `COc1ccc(-c2nn(-c3cccc(NC(=O)c4ccc(N5CCOCC5)c(C(F)(F)F)c4)c3)cc2-c2ccncc2)cc1Cl`, the GI50 in the test with BT-549 breast was 4.14 µM; in the test on MDA-MB-231 breast, 2.29 µM. Also, the TGI in the test with BT-549 breast and with MDA-MB-231 breast was more than 50 µM throughout.

In the case of `COC(=O)[C@@H](C)C[C@H](Cc1ccccc1)NC(=O)c1csc([C@@H](C[C@H](C(C)C)N(C)C(=O)[C@H](C)NC(=O)[C@H]2CCCCN2C)OC(C)=O)n1`, in the test with BT-549 breast, the GI50 was 0.979 µM and the TGI turned out to be 17.5 µM. For the same compound, in the test with MDA-MB-231 breast, the GI50 is 1.24 µM and the TGI was more than 25 µM.

Turning to `C=C1c2c(Cl)ccc(O)c2C(O)=C2C(=O)[C@]3(O)C(O)=C(C(N)=O)C(=O)[C@@H](N(C)C)[C@@H]3[C@@H](O)[C@H]12`, the GI50 in the test with BT-549 breast and with MDA-MB-231 breast was 1.07 µM throughout. The TGI with BT-549 breast was 3.24 µM; in the test on MDA-MB-231 breast it was 2.93 µM.

For `C/C=C(\C)C(=O)N[C@H]1C(O)C[C@]2(C)C3CC[C@@]4(C)C(CC[C@@H]4C(C)N(C)C)C3CCC2C1O` (stereo partly specified), in the test with BT-549 breast, the GI50 is 16.9 µM and the TGI was determined as 51.9 µM. In addition, in the test on MDA-MB-231 breast, the GI50 is 6.06 µM and the TGI came to 18 µM.

Take `CCc1nc(N)nc(N)c1-c1ccc(Cl)c(N=CN(C)C)c1`: the TGI in the test on BT-549 breast, in the test with MDA-MB-231 breast and in the test on MDA-N was more than 100 µM each time.

`CN(C)CCN1C(=O)c2cccc3cccc(c23)C1=O`: in the test on BT-549 breast, the GI50 is more than 25 µM and the TGI was more than 25 µM. Also, in the test on MDA-MB-231 breast, the GI50 is more than 25 µM and the TGI is more than 25 µM.

On to `Cn1c(=O)c(Oc2ccc(F)cc2F)cc2cnc(NCCS(C)(=O)=O)nc21`, for which, in the test on BT-549 breast, the GI50 was more than 25 µM and the TGI is more than 25 µM. Also, in the test on MDA-MB-231 breast, the GI50 is more than 25 µM and the TGI is more than 25 µM.

Consider `Oc1ccc(Cl)cc1CNc1nc2ccccc2[nH]1`, for which, in the test on BT-549 breast, the GI50 is 9.05 µM and the TGI was determined as 23.3 µM. In addition, in the test on MDA-MB-231 breast, the GI50 was 8.31 µM and the TGI was determined as 22.4 µM.

Regarding `O=C(Nc1ccc(I)cc1F)c1cc(Cl)ccc1O`, in the test on BT-549 breast, the GI50 is 0.372 µM and the TGI is 1.73 µM. Further, in the test with MDA-MB-231 breast, the GI50 is 0.388 µM and the TGI came out at 4.56 µM.

Consider `CC(C)COC(=O)c1ccc2[nH]c(O)c(C=Nc3ccc(S(N)(=O)=O)cc3)c2c1`, for which the GI50 in the test with BT-549 breast is 1.65 µM; in the test on MDA-MB-231 breast it was 0.915 µM. For the same compound, the figures for the TGI in the test on BT-549 breast and in the test on MDA-MB-231 breast were 4 µM and 6.76 µM, respectively.

With `COc1ccc(C2=CC(c3ccc(OC)c(OC)c3)c3c(c4ccccc4oc3=O)O2)cc1OC` (stereo unspecified), the GI50 with BT-549 breast is 92.6 µM; in the test on MDA-MB-231 breast, 3.46 µM. Moreover, the TGI is more than 100 µM with BT-549 breast and more than 51.4 µM in the test with MDA-MB-231 breast.

For the compound `COc1ccc2nc(NC(=O)c3cccnc3Nc3cc(OC)c(OC)c(OC)c3)sc2c1`, in the test with BT-549 breast, the GI50 is 11.6 µM and the TGI came out at 28.2 µM. Besides, in the test with MDA-MB-231 breast, the GI50 is 5.62 µM and the TGI was 21.7 µM.

Regarding `CN(/N=N/c1nc(OCc2ccccc2)c2[nH]cnc2n1)C(=O)Oc1ccc([N+](=O)[O-])cc1`, in the test on BT-549 breast, the GI50 is 7.35 µM and the TGI was determined as 20.4 µM. Moreover, in the test with MDA-MB-231 breast, the GI50 was 5.78 µM and the TGI is 18.6 µM.

Regarding `Cc1cccc(Nc2cnc(N)nc2N)c1`, the TGI in the test on MDA-MB-231 breast and in the test on MDA-N was more than 100 µM each time.

`CO[C@H]1CC(c2ccc[nH]2)=N[C@]12O[C@@H](C)C[C@@H]1CCCCCCCc3ccc([nH]3)[C@H]12`: the GI50 in the test with BT-549 breast was 1.21 µM; in the test with MDA-MB-231 breast, 0.853 µM. Moreover, the TGI with BT-549 breast amounted to 9.31 µM; in the test on MDA-MB-231 breast it was 5.23 µM.

For the compound `Clc1nc(Cl)c2ncn(Cc3ccc(Cn4cnc5c(Cl)nc(Cl)nc54)cc3)c2n1`, the TGI in the test on BT-549 breast came to 18.9 µM. Further, in the test on MDA-MB-231 breast, the GI50 was 3.23 µM and the TGI was 22.4 µM.

For `COc1cc(Cl)cc(-c2nn(-c3cccc(NC(=O)Nc4ccc(Cl)c(C(F)(F)F)c4)c3)cc2-c2ccncc2)c1`, the GI50 in the test with BT-549 breast is 2.38 µM; with MDA-MB-231 breast it was 1.44 µM. The TGI amounted to 6.66 µM with BT-549 breast and 3.74 µM in the test on MDA-MB-231 breast.

In the test on MDA-MB-231 breast, `O=C1CC(c2ccc(Cl)cc2)Oc2ccccc21` (stereo unspecified) had a TGI of 53.9 µM.

For the compound `c1ccc(CNc2nc(Nc3ccccc3)nc3ccccc23)cc1`, the figures for the GI50 in the test with BT-549 breast and in the test on MDA-MB-231 breast were 1.9 µM and 1.58 µM, respectively. For the same compound, the TGI in the test with BT-549 breast is 3.97 µM; with MDA-MB-231 breast it was 3.12 µM.

For `CCn1c2ccccc2c2cc(C(O)c3cccc4ncccc34)ccc21` (stereo unspecified), in the test on BT-549 breast, the GI50 was 0.0702 µM and the TGI is 15.6 µM. In the test with MDA-MB-231 breast, the GI50 was 0.128 µM and the TGI amounted to 11.4 µM.

On to `C=CCCCc1ccc(C(O)CCCCCCCCCCCC)o1` (stereo unspecified), for which, in the test on BT-549 breast, the GI50 was 22.6 µM and the TGI is 43.3 µM. For the same compound, in the test on MDA-MB-231 breast, the GI50 was 15.6 µM and the TGI worked out at 29.8 µM.

These data come from PubChem BioAssay (NCI).
